Like-named read-outs stand apart in the source and are kept apart here.
Columns and labels:
Format in all cases: cell-based
Ba/F3 ERBB2 YVMA = assay: Cell viability assay (CellTiter Glo), Ba/F3 cells engineered to express ERBB2 YVMA; settings: Mus musculus, BaF3, 72 h
Method: Cells were treated with compounds, and cell viability was measured as a metric of kinase inhibition.
BT-474, A431, MDA-MB-175VII, NCI-H1781, MCF7, and Ba/F3 cell lines were tested. The Ba/F3 cell line is IL-3-dependent mouse cell line derived from the C3H mouse strain. Ba/F3 cell lines were engineered to express human ERBB2 or EGFR kinases, rendering the cells IL-3 independent. The lines were generated via retroviral transduction utilizing a Moloney murine leukemia virus (MMLV) promoter, and constructs are stably integrated into the cell genome. The sequences of the ERBB2 and EGFR genes used were NCBI Reference Sequences NM 004448.3 and NM 005228.3, respectively.
BT-474, A431, MDA-MB-175VII, NCI-H1781 and MCF7 cells were grown in the appropriate growth medium as described in Table B2 below, and harvested at 50-80% confluence. BT-474, A431, MDA-MB-175VII, NCI-H1781 and MCF7 cells were counted and seeded at 2,000 or 1,500 cells per well in 384-well tissue culture plates (see Table B2). Similarly, Ba/F3 cell lines engineered to express EGFR, ERBB2, or ERBB2 mutants were grown, harvested, counted and seeded at 3000 cells per well in 96-well plates. A subset of wells contained media only (low control, “LC”).
Table B1 provides the growth media and number of cells seeded per well for the each cell line.
Compounds were dissolved in DMSO and serially diluted. Serially-diluted compound or a DMSO only control (high control, “HC”) was added to the plated cells in each well. Compounds were tested at concentrations of about 10 μM to 0.51 nM, using three-fold dilutions. The final proportion of DMSO never exceeded 0.1%.
Plates were placed in a 37° C., 5% CO2 incubator for 72 hours. Plates were then removed from the incubator and equilibrated for 15 minutes at room temperature. […] of CellTiter Glo reagent (Promega) was added to measure the relative level of metabolically active cells by quantifying intracellular ATP concentrations. Plates were incubated for 30 minutes at room temperature, and luminescence was measured. Percent viability was normalized to a vehicle control only using the following formula: % viability=100×(Lumsample−LumLC)/(LumHC−LumLC). Graphical curves were fitted using a nonlinear regression model with a sigmoidal dose response.

[1] = biological target: phosphorylated EGFR (pEGFR) (Homo sapiens (Human), UniProt P00533); assay: Detection of phosphorylated EGFR (pEGFR) in EGF-stimulated A431 cells (AlphaLISA); settings: A431 cells (10% FBS), 4 hours incubation, then EGF 30 ng/mL for 10 minutes
Method: […] were performed to measure phosphorylated EGFR levels using A431 cells (10% FBS). A431 (1.0*10^4 cells/40 μl/well) cells were seeded in 384 well. Compounds were dissolved in DMSO, serially diluted in DMSO and then were added, mixed, and incubated for 4 hours at 37° C., 5% CO2. Following the 4-hours incubation, cells were stimulated for 10 minutes with EGF (Invitrogen, cat #PHG0311) at a final concentration of 30 ng/mL in the incubator. The media was aspirated and cells were lysed in […] lysis buffer with protease and phosphatase inhibitors (PerkinElmer, cat #ALSU-PEGFR-A50K). The plates were placed on a shaker for 5 minutes and then incubated for 30 min at 4° C. for complete lysis. The lysate was transferred to an Optiplate (Perkin Elmer, cat #6007290).
Acceptor mix (PerkinElmer, cat #ALSU-PEGFR-A50K) was prepared just before use and 5 μL was dispensed to all the wells, followed by a 1.5-2 h incubation at room temperature in dark. The donor mix (PerkinElmer, cat #ALSU-PEGFR-A50K) was prepared under low light conditions prior to use and […] of donor mix was added to all the wells under subdued lighting or green filters. The plates were placed on a shaker for 5 min, sealed, and incubated overnight at room temperature in dark. Plates were read on the Envision (PerkinElmer) using standard AlphaLISA settings.
The percentage of inhibition on EGFR phosphorylation was calculated following equation: % Inhibition=100×(LumHC−LumSample)/(LumHC−LumLC). The low and high controls (LC/HC) are generated from lysate from wells with cells treated with DMSO or […] Staurosporine (BioAustralis, cat #BIA-S1086), […]. IC50 values were calculated by fitting the Curve using XLfit (v5.3.1.3), equation 201: Y=Bottom+(Top−Bottom)/(1+10^((Log IC50−X)*HillSlope)).

[2] = biological target: phosphorylated ERBB2 (pERBB2) (Homo sapiens (Human), UniProt P04626); assay: Detection of phosphorylated ERBB2 (pERBB2) by ELISA in BT-474 cells; settings: four hours incubation with compound
Method: BT-474 cells were seeded into a 96-well at 2.0*10^4 cells/100 μl/well. Compounds were dissolved and serially diluted in DMSO. The compounds were then were added, mixed, and incubated for four hours at 37° C., 5% CO2. […] Following the four hour incubation with compounds, cell lysates were prepared. Plates were centrifuged for 5 min at 3000 RPM, and supernatant was removed from each well. Cells were washed 3 times by resuspension in 150 μl PBS, followed by centrifugation and removal of the supernatant, as above. 100 μl of cell lysis buffer (Boston BioProducts, cat #BP-115D) supplied with 1× complete ULTRA cocktail inhibitor (Thermo ScientificTM, cat #78443) was then added to the washed cells. Cells were incubated with lysis buffer for 1 hour at 4° C., and then stored at -80° C. Enzyme-linked immunosorbent assays (ELISA) were performed to measure phosphorylated ERBB2 levels. […] The next day, plates were washed with PBS+0.05% Tween20 (PBST). 150 μl of 5% BSA blocking solution was added for 1 hour at room temperature, with shaking. Plates were washed with PB ST. Cell lysates were thawed and 100 μl of lysate was added to the ELISA plate. The plates were incubated for 2 hours at room temperature, with shaking. ELISA plates were then washed with PBST and 100 μl of an HRP-labeled detection antibody that binds phosphorylated tyrosine (R&D Systems, cat #841913) was added to each well. Plates were incubated for 1 hour at room temperature, with shaking. Plates were then washed with PBST, and 100 μl TMB substrate solution (R&D Systems, cat #DY999) was added. Plate were incubated in the dark for 20 minutes at room temperature. 50 μl of Stop solution (R&D Systems, cat #DY994) (50 μl) was added to each well and mixed. […] The remaining kinase activity by calculated using the following formula: % Relative activity=100×([…]). The low and high control values (“LC” and “HC”) were generated from lysate from wells without cells or with cells treated with 0.1% DMSO, respectively.

[3] = Ba/F3 cells expressing human ERBB2 YVMA mutant, 72 hours, cell viability, CellTiter Glo, read-out: Ba/F3 ERBB2 YVMA, IC50
[4] = read-out: Ba/F3 ERBB2 YVMA, IC50, nM

phosphorylated EGFR (pEGFR), sequence (P00533 25-1210): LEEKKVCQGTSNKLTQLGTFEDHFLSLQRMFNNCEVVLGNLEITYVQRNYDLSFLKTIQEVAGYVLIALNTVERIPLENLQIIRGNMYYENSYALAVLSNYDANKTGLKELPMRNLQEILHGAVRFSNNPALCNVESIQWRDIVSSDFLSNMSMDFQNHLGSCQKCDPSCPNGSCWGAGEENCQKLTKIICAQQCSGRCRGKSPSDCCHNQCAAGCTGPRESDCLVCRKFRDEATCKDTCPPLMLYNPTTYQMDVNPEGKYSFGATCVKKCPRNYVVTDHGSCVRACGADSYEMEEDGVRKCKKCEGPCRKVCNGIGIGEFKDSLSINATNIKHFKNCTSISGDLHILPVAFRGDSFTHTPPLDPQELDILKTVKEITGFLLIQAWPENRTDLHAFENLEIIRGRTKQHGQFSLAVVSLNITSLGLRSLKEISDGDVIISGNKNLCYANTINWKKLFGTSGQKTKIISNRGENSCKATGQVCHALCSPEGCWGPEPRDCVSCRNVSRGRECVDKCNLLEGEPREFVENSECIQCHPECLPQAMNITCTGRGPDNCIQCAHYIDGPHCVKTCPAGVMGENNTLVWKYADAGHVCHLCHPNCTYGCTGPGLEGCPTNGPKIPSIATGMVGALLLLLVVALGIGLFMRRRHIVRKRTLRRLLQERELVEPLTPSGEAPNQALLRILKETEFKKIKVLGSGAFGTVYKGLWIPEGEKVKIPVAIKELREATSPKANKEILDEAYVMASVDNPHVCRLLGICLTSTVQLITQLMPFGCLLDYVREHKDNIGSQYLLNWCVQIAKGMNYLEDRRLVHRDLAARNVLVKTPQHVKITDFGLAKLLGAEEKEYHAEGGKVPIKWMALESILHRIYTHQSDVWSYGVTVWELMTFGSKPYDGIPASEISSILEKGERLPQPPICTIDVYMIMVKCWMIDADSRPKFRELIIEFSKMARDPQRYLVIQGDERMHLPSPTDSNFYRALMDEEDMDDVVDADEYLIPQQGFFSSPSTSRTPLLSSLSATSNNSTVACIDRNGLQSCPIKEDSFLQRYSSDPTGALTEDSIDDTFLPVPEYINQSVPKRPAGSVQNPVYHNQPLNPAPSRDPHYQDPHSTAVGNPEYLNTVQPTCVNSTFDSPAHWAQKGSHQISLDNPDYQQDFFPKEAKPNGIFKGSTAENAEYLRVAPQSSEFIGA
phosphorylated ERBB2 (pERBB2), sequence (P04626 23-1255): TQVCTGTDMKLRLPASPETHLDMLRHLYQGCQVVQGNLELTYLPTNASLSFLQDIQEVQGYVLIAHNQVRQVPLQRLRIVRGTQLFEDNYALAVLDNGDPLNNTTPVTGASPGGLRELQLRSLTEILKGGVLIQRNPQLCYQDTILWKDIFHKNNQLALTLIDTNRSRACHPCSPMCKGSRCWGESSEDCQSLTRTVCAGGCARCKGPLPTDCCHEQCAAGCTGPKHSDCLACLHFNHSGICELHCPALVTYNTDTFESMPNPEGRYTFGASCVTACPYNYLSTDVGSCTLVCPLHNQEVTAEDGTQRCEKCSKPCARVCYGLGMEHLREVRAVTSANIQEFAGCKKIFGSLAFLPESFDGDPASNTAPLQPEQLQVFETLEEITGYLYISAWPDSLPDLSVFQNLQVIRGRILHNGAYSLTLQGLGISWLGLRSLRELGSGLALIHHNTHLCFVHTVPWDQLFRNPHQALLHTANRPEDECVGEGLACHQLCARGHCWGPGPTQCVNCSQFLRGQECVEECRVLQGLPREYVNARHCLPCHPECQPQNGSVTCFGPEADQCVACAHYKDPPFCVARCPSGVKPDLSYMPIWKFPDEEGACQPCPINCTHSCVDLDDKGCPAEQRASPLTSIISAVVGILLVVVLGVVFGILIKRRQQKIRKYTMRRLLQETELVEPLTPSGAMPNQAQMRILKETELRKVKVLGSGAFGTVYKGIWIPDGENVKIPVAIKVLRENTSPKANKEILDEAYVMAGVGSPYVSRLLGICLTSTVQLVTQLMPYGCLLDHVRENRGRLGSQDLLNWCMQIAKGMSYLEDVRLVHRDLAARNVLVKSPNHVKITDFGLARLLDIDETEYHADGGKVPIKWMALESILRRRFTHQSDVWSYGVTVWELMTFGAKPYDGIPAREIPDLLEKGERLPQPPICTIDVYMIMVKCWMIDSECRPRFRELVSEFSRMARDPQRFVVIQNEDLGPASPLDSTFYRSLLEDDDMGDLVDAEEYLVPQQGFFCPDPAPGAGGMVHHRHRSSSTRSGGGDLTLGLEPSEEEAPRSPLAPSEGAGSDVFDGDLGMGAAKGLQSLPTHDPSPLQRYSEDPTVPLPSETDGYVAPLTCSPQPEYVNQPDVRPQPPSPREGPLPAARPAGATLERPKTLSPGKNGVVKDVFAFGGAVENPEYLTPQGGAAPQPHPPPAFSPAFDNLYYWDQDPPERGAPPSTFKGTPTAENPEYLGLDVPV

SMILES	IC50 (Ba/F3 ERBB2 YVMA; [3]) [nM]	IC50 [1] [nM]	IC50 [2] [nM]	IC50 (Ba/F3 ERBB2 YVMA; [4]) [nM]
[2H]C([2H])(/C=C/C(=O)N1CCN2C[C@H]1COc1cc3ncnc(Nc4cc(C)c(Oc5ccn6ncnc6c5)cc4F)c3nc12)N(C)C [Compound 58, (E)-1-((10S)-4-((4-([1,2,4]triazolo[1,5-a]pyridin-7-yloxy)-2-fluoro-5-methylphenyl)amino)-7,8,10,11-tetrahydro-9H-6,10-methanopyrimido[4′,5′:5,6]pyrido[3,2-b][1,4,7]oxadiazonin-9-yl)-4-(dimethylamino)but-2-en-1-one-4,4-d2]	7.79	869	5.5	
[2H]C([2H])([2H])N(C/C=C/C(=O)N1CCN2C[C@H]1COc1cc3ncnc(Nc4ccc(Oc5ccn6ncnc6c5)c(C)c4)c3nc12)C([2H])([2H])[2H] [Compound 36, (E)-1-((10S)-4-((4-([1,2,4]triazolo[1,5-a]pyridin-7-yloxy)-3-methylphenyl)amino)-7,8,10,11-tetrahydro-9H-6,10-methanopyrimido[4′,5′:5,6]pyrido[3,2-b][1,4,7]oxadiazonin-9-yl)-4-(bis(methyl-d3)amino)but-2-en-1-one formic acid]		1620	9.92	6.19
Cc1cc(Nc2ncnc3cc4c(nc23)N2CCCN(C(=O)/C=C/CN(C)C)C(CO4)C2)ccc1Oc1ccn2ncnc2c1 (racemic) [Compound 54, (E)-1-(4-((4-([1,2,4]triazolo[1,5-a]pyridin-7-yloxy)-3-methylphenyl)amino)-8,9,11,12-tetrahydro-6,11-methanopyrimido[4′,5′:5,6]pyrido[3,2-b][1,4,8]oxadiazecin-10(7H)-yl)-4-(dimethylamino)but-2-en-1-one]	8.66	> 10000	29.2	
[2H]C([2H])([2H])N(C/C=C/C(=O)N1CCN2C[C@H]1COc1cc3ncnc(Nc4cc(C)c(Oc5ccn6ncnc6c5)cc4F)c3nc12)C([2H])([2H])[2H] [Compound 46, (E)-1-((10S)-4-((4-([1,2,4]triazolo[1,5-a]pyridin-7-yloxy)-2-fluoro-5-methylphenyl)amino)-7,8,10,11-tetrahydro-9H-6,10-methanopyrimido[4′,5′:5,6]pyrido[3,2-b][1,4,7]oxadiazonin-9-yl)-4-(bis(methyl-d3)amino)but-2-en-1-one]		2470	6.84	7.04
C=CC(=O)N1CCN2C[C@@H]1COc1cc3ncnc(Nc4ccc(Cc5ccn6ncnc6c5)c(C)c4)c3nc12 [Compound 19]		> 10000		> 500
Cc1cc(Nc2ncnc3cc4c(nc23)N2CCCN(C(=O)/C=C/CN(C)C)C(CO4)C2)ccc1Oc1ccn2ncnc2c1 (single isomer, unassigned) [Example S55, Enantiomer 1, (E)-1-(4-((4-([1,2,4]triazolo[1,5-a]pyridin-7-yloxy)-3-methylphenyl)amino)-8,9,11,12-tetrahydro-6,11-methanopyrimido[4′,5′:5,6]pyrido[3,2-b][1,4,8]oxadiazecin-10(7H)-yl)-4-(dimethylamino)but-2-en-1-one]			17.4	
C=CC(=O)N1CCN2C[C@H]1COc1cc3ncnc(Nc4ccc(Cc5ccn6ncnc6c5)c(C)c4)c3nc12 [Compound 13, 1-((10S)-4-((4-([1,2,4]triazolo[1,5-a]pyridin-7-ylmethyl)-3-methylphenyl)amino)-7,8,10,11-tetrahydro-9H-6,10-methanopyrimido[4′,5′:5,6]pyrido[3,2-b][1,4,7]oxadiazonin-9-yl)prop-2-en-1-one]		1580	15.8	8.92
Cc1cc(Nc2ncnc3cc4c(nc23)N2CCCN(C(=O)/C=C/CN(C)C)C(CO4)C2)ccc1Oc1ccn2ncnc2c1 (single isomer, unassigned) [Example S55, Enantiomer 2, (E)-1-(4-((4-([1,2,4]triazolo[1,5-a]pyridin-7-yloxy)-3-methylphenyl)amino)-8,9,11,12-tetrahydro-6,11-methanopyrimido[4′,5′:5,6]pyrido[3,2-b][1,4,8]oxadiazecin-10(7H)-yl)-4-(dimethylamino)but-2-en-1-one]			304	
[2H]C([2H])([2H])N(C([2H])([2H])[2H])C([2H])([2H])/C=C/C(=O)N1CCN2C[C@H]1COc1cc3ncnc(Nc4cc(C)c(Oc5ccn6ncnc6c5)cc4F)c3nc12 [Compound 59, (E)-1-((10S)-4-((4-([1,2,4]triazolo[1,5-a]pyridin-7-yloxy)-2-fluoro-5-methylphenyl)amino)-7,8,10,11-tetrahydro-9H-6,10-methanopyrimido[4′,5′:5,6]pyrido[3,2-b][1,4,7]oxadiazonin-9-yl)-4-(bis(methyl-d3)amino)but-2-en-1-one-4,4-d2]	6.5	1380	9	

— patent publication US11807649B2, “Fused tetracyclic quinazoline derivatives as inhibitors of ErbB2” (EnLiven Therapeutics, Inc., priority 2021, dated 2023)
